Laboratory results as given in publication PMC9897788, “Design, synthesis and cytotoxic evaluation of novel bis-thiazole derivatives as preferential Pim1 kinase inhibitors with in vivo and in silico study” (Journal of Enzyme Inhibition and Medicinal Chemistry, 2023).

Key:
[1] = test system: CAKI-1; assay: NCI 60 cell one-dose screening (SRB); type: cell-based; details: Homo sapiens; CAKI-1, Renal Cancer; single dose 10 µM, 48 h; read-out: Percentage of cellular growth inhibition
Procedure, shortened: (§1)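 Absorbance of bound sulphorhodamine B at 515 nm served as the read-out after 48 h of treatment with 10 µM compound. Growth % used a time-zero plate (Tz) fixed at drug addition and the untreated control; inhibition % equals 100 minus that growth.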

[2] = test system: HCC-2998; assay: NCI 60 cell one-dose screening (SRB); type: cell-based; details: Homo sapiens; HCC-2998, Colon Cancer; single dose 10 µM, 48 h; read-out: Percentage of cellular growth inhibition
Procedure, shortened: as §1

[3] = test system: HOP-92; assay: NCI 60 cell one-dose screening (SRB); type: cell-based; details: Homo sapiens, HOP-92, 48 h, HOP-92, Non-Small Cell Lung Cancer, single dose 10 µM, read-out: Percentage of cellular growth inhibition
Procedure, shortened: as §1

[4] = test system: LOX IMVI; assay: NCI 60 cell one-dose screening (SRB); type: cell-based; details: Homo sapiens, Melanoma, single dose 10 µM, 48 h, read-out: Percentage of cellular growth inhibition
Procedure, shortened: as §1

[5] = test system: MCF7; assay: NCI 60 cell one-dose screening (SRB); type: cell-based; details: Homo sapiens; MCF7, Breast Cancer; single dose 10 µM, 48 h; read-out: Percentage of cellular growth inhibition
Procedure, shortened: as §1

[6] = test system: MDA-MB-435; assay: NCI 60 cell one-dose screening (SRB); type: cell-based; details: Homo sapiens; MDA-MB-435, Melanoma; single dose 10 µM, 48 h; read-out: Percentage of cellular growth inhibition
Procedure, shortened: as §1

[7] = test system: MOLT-4; assay: NCI 60 cell one-dose screening (SRB); type: cell-based; details: Homo sapiens; MOLT-4, Leukemia; single dose 10 µM, 48 h; read-out: Percentage of cellular growth inhibition
Procedure, shortened: as §1

[8] = test system: NCI-H226; assay: NCI 60 cell one-dose screening (SRB); type: cell-based; details: Homo sapiens; NCI-H226, Non-Small Cell Lung Cancer; single dose 10 µM, 48 h; read-out: Percentage of cellular growth inhibition
Procedure, shortened: as §1

[9] = test system: OVCAR-3; assay: NCI 60 cell one-dose screening (SRB); type: cell-based; details: Homo sapiens; OVCAR-3, Ovarian Cancer; single dose 10 µM, 48 h; read-out: Percentage of cellular growth inhibition
Procedure, shortened: as §1

[10] = test system: RXF 393; assay: NCI 60 cell one-dose screening (SRB); type: cell-based; details: Homo sapiens; RXF 393, Renal Cancer; single dose 10 µM, 48 h; read-out: Percentage of cellular growth inhibition
Procedure, shortened: as §1

[11] = test system: SF-295; assay: NCI 60 cell one-dose screening (SRB); type: cell-based; details: Homo sapiens; SF-295, CNS Cancer; single dose 10 µM, 48 h; read-out: Percentage of cellular growth inhibition
Procedure, shortened: as §1

[12] = test system: SK-MEL-2; assay: NCI 60 cell one-dose screening (SRB); type: cell-based; details: Homo sapiens; SK-MEL-2, Melanoma; single dose 10 µM, 48 h; read-out: Percentage of cellular growth inhibition
Procedure, shortened: as §1

[13] = test system: SK-OV-3; assay: NCI 60 cell one-dose screening (SRB); type: cell-based; details: Homo sapiens; SK-OV-3, Ovarian Cancer; single dose 10 µM, 48 h; read-out: Percentage of cellular growth inhibition
Procedure, shortened: as §1

[14] = test system: SNB-75; assay: NCI 60 cell one-dose screening (SRB); type: cell-based; details: Homo sapiens; SNB-75, CNS Cancer; single dose 10 µM, 48 h; read-out: Percentage of cellular growth inhibition
Procedure, shortened: as §1

[15] = test system: SR; assay: NCI 60 cell one-dose screening (SRB); type: cell-based; details: Homo sapiens, Leukemia, single dose 10 µM, 48 h, read-out: Percentage of cellular growth inhibition
Procedure, shortened: as §1

[16] = test system: T-47D; assay: NCI 60 cell one-dose screening (SRB); type: cell-based; details: Homo sapiens, T47D, 48 h, Breast Cancer, single dose 10 µM, read-out: Percentage of cellular growth inhibition
Procedure, shortened: as §1

[17] = test system: UO-31; assay: NCI 60 cell one-dose screening (SRB); type: cell-based; details: Homo sapiens; UO-31, Renal Cancer; single dose 10 µM, 48 h; read-out: Percentage of cellular growth inhibition
Procedure, shortened: as §1

[18] = test system: Breast T47D cancer cell line; assay: In vitro inhibition concentration of breast T47D cancer cell line; type: cell-based; details: Homo sapiens
Method: Cells were seeded and treated with a range of inhibitors concentration 39–10,000 nM after 24 h relative to DMSO. […]

Row | Structure (SMILES) | inhibition at 10 µM [1] [%] | inhibition at 10 µM [2] [%] | inhibition at 10 µM [3] [%] | inhibition at 10 µM [4] [%] | inhibition at 10 µM [5] [%] | inhibition at 10 µM [6] [%] | inhibition at 10 µM [7] [%] | inhibition at 10 µM [8] [%] | inhibition at 10 µM [9] [%] | inhibition at 10 µM [10] [%] | inhibition at 10 µM [11] [%] | inhibition at 10 µM [12] [%] | inhibition at 10 µM [13] [%] | inhibition at 10 µM [14] [%] | inhibition at 10 µM [15] [%] | inhibition at 10 µM [16] [%] | inhibition at 10 µM [17] [%] | melting point [°C] | IC50 ([18]; 48 h) [µM] | IC50 ([18]; 96 h) [µM]
1 | Clc1ccc(-c2cs/c(=N\c3ccccc3)n2-c2cccc(-n3c(-c4ccc(Cl)cc4)cs/c3=N\c3ccccc3)c2)cc1 [8c, N,N’-(3,3’-(1,3-phenylene)bis(4–(4-chlorophenyl)thiazole-3(3H)-yl-2(3H)-ylidene))dianiline] | 9 | -1.7 | 2.4 | 50.6 | 23.4 | 5.4 | 12.3 | 16.9 | -6.6 | 8.4 | -17.9 | -9.6 | -29.4 | 14.6 | 12.1 | 8.9 | 17.8 | 120 to 121 |  | 
2 | c1ccc(/N=c2\scc(-c3ccccc3)n2-c2cccc(-n3c(-c4ccccc4)cs/c3=N\c3ccccc3)c2)cc1 [8a, N,N’-(3,3’-(1,3-phenylene)bis(4-phenylthiazole-3(3H)-yl-2(3H)-ylidene))dianiline] | 25.4 | -22.2 | 14.5 | 22.6 | 18 | 1 | -5.5 | 17 | -3.6 | 10.3 | -22.4 | 12.6 | -34.8 | 11.7 | 6.1 | 10.2 | 25.4 | 110 to 111 |  | 
3 | Fc1ccc(-c2csc(Nc3cccc(Nc4nc(-c5ccc(F)cc5)cs4)c3)n2)cc1 [6b, N^1,N^3-bis(4–(4-fluorophenyl)thiazol-2-yl)benzene-1,3-diamine] | 53.6 | 64.8 | 60.8 | 60.7 | 75.3 | 36.9 | 53.6 | 48.5 | 42.5 | 24.5 | 9.6 | 65.3 | 13.2 | 4.8 | 48.6 |  | 68.7 | 80 to 83 | 5.92 | 1.61
